For the experiment, the target named is histamine H4 receptor (Homo sapiens, UniProt Q9H3N8). The experiment in a line: In vitro histamine H4 potency in FLIPR (Ca2+ flux, HEK-293 cells coexpressing Gαqi5). The following applies: Kb for antagonists and inverse agonists, EC50 for partial agonists. Also on record: expressed in transfected cells. The format is cell-based. An excerpt:
There are many methods available to show the effectiveness of compounds as histamine H4 receptor ligands. Histamine H4 receptors from mammalian species have been cloned. Methods to clone, express, and assess the potency and functional activity of such cloned genes are well known to those skilled in the art of molecular biology. […] Before testing, cells are loaded with a Ca^+2 sensitive fluorescent dye, in this case Fluo-4. In the case of partial agonist or agonist ligands, addition of compound to the cells leads to the increase in intracellular Ca^+2 which is detected by FLIPR (Fluorescence Imaging Plate Reader; Molecular Devices, Sunnyvale, Calif.) technology. […] The fluorescence intensities measured before addition of the test compound are subtracted from the fluorescence intensities at later time points. Peak response values determined at each concentration of ligand are expressed as a percentage of the response obtained with the full agonist histamine. Concentration versus response data are analyzed to obtain compound potency as Kb values for antagonists and inverse agonists and as EC50 values for partial agonists.

Sequence of histamine H4 receptor (Q9H3N8 whole entry): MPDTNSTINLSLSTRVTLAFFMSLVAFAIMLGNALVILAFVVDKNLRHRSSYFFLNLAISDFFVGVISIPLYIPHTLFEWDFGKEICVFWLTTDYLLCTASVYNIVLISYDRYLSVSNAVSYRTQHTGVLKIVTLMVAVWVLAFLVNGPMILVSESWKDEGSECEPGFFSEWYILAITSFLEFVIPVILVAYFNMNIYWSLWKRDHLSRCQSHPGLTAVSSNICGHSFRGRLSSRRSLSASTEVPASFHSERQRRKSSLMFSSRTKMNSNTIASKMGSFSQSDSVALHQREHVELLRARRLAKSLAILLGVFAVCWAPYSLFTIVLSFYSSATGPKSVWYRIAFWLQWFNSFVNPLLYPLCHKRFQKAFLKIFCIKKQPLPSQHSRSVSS

Consider “4-(4-Dimethylamino-piperidin-1-yl)-6,7-dihydro-5H-benzo[6,7]cyclohepta[1,2-d]pyrimidin-2-ylamine [Example 114]”, for which the Potency was 17 nM.
Then `CN[C@@H]1CCN(c2nc(N)nc3c2CC(C)c2ccccc2-3)C1` (stereo partly drawn) [Example 1, 6-Methyl-4-[(3R)-3-methylamino-pyrrolidin-1-yl]-5,6-dihydro-benzo[h]quinazolin-2-ylamine], with 18 nM; and `CNC1CN(c2nc(N)nc3c2CC(C)c2ccccc2-3)C1` (stereo not drawn) [Example 2, 6-Methyl-4-(3-methylamino-azetidin-1-yl)-5,6-dihydro-benzo[h]quinazolin-2-ylamine], with 44 nM.
To `CC1Cc2c(nc(N)nc2N2CCNCC2)-c2ccccc21` (stereo not drawn) [Example 4, 6-Methyl-4-piperazin-1-yl-5,6-dihydro-benzo[h]quinazolin-2-ylamine] belongs 398 nM; to `CN1CCN(c2nc(N)nc3c2CCCc2ccccc2-3)CC1` [Example 5, 4-(4-Methyl-piperazin-1-yl)-6,7-dihydro-5H-benzo[6,7]cyclohepta[1,2-d]-pyrimidin-2-ylamine], 9.8 nM; to `CNC1CN(c2nc(N)nc3c2COc2ccccc2-3)C1` [Example 8, 1-(3-Methylamino-azetidin-1-yl)-10H-9-oxa-2,4-diaza-phenanthren-3-ylamine], 33 nM.
To `CN[C@@H]1CCN(c2nc(N)nc3c2COc2ccccc2-3)C1` [Example 9, 1-(3-(R)-Methylamino-pyrrolidin-1-yl)-10H-9-oxa-2,4-diaza-phenanthren-3-ylamine] belongs 32 nM; to `Nc1nc2c(c(N3CCNCC3)n1)COc1ccccc1-2` [Example 10, 1-Piperazin-1-yl-10H-9-oxa-2,4-diaza-phenanthren-3-ylamine], 10 nM; to `CN[C@@H]1CCN(c2nc(N)nc3c2CCCc2ccc(F)cc2-3)C1` [Example 11, 10-Fluoro-4-(3-(R)-methylamino-pyrrolidin-1-yl)-6,7-dihydro-5H-benzo[6,7]cyclohepta[1,2-d]pyrimidin-2-ylamine], 7.8 nM.
For `CNC1CN(c2nc(N)nc3c2CCCc2ccc(F)cc2-3)C1` [Example 12, 10-Fluoro-4-(3-methylamino-azetidin-1-yl)-6,7-dihydro-5H-benzo[6,7]cyclohepta[1,2-d]pyrimidin-2-ylamine], the Potency is on record as 7.4 nM.
To `Nc1nc2c(c(N3CCNCC3)n1)CCCc1ccc(F)cc1-2` [Example 13, 10-Fluoro-4-piperazin-1-yl-6,7-dihydro-5H-benzo[6,7]cyclohepta[1,2-d]pyrimidin-2-ylamine] belongs 7.2 nM; to `CN[C@H]1CCN(c2nc(N)nc3c2CCCc2ccccc2-3)C1` [Example 14, 4-[(3S)-3-Methylamino-pyrrolidin-1-yl]-6,7-dihydro-5H-benzo[6,7]cyclohepta[1,2-d]pyrimidin-2-ylamine], 331 nM.
Then `CN1CC[C@@H]2CN(c3nc(N)nc4c3CCCc3ccccc3-4)C[C@@H]21` [Example 15, 4-((3aR,6aR)-1-Methyl-hexahydro-pyrrolo[3,4-b]pyrrol-5-yl)-6,7-dihydro-5H-benzo[6,7]cyclohepta[1,2-d]pyrimidin-2-ylamine], with 209 nM; and `Nc1nc2c(c(N3C[C@@H]4C[C@H]3CN4)n1)CCCc1ccccc1-2` [Example 17, 4-((1S,4S)-2,5-Diaza-bicyclo[2.2.1]hept-2-yl)-6,7-dihydro-5H-benzo[6,7]cyclohepta[1,2-d]pyrimidin-2-ylamine], with 912 nM; and `Nc1nc2c(c(N3CCC(N4CCCCC4)C3)n1)CCCc1ccccc1-2` (stereo not drawn) [Example 18, 4-(3-Piperidin-1-yl-pyrrolidin-1-yl)-6,7-dihydro-5H-benzo[6,7]cyclohepta[1,2-d]pyrimidin-2-ylamine], with 25704 nM.
Then `Nc1nc2c(c(N3CC[C@@H]4CNC[C@@H]43)n1)CCCc1ccccc1-2` [Example 19, 4-((3aR,6aR)-Hexahydro-pyrrolo[3,4-b]pyrrol-1-yl)-6,7-dihydro-5H-benzo[6,7]cyclohepta[1,2-d]pyrimidin-2-ylamine], with 603 nM; and `Nc1nc2c(c(N3CCNCC3)n1)CCCCc1ccccc1-2` [Example 20, 4-Piperazin-1-yl-5,6,7,8-tetrahydro-1,3-diaza-dibenzo[a,c]cycloocten-2-ylamine], with 32 nM.
As for `Nc1nc2c(c(N3CCNCC3)n1)CCCCCc1ccccc1-2` [Example 21, 4-Piperazin-1-yl-6,7,8,9-tetrahydro-5H-1,3-diaza-dibenzo[a,c]cyclononen-2-ylamine], the Potency worked out at 5623 nM.
To `Nc1nc2c(c(N3CC4CNCC4C3)n1)CCCc1ccccc1-2` (stereo not drawn) [Example 22, 4-(Hexahydro-pyrrolo[3,4-c]pyrrol-2-yl)-6,7-dihydro-5H-benzo[6,7]cyclohepta[1,2-d]pyrimidin-2-ylamine] belongs 66 nM; to `CN[C@@H]1CCN(c2nc(N)nc3c2CCCCCc2ccccc2-3)C1` [Example 23, 4-(3-(R)-Methylamino-pyrrolidin-1-yl)-6,7,8,9-tetrahydro-5H-1,3-diaza-dibenzo[a,c]cyclononen-2-ylamine], 56 nM.
To `Nc1nc2c(c(N3CC[C@@H](N)C3)n1)CCCCCc1ccccc1-2` [Example 24, 4-((R)-3-Amino-pyrrolidin-1-yl)-6,7,8,9-tetrahydro-5H-1,3-diaza-dibenzo[a,c]cyclononen-2-ylamine] belongs 148 nM.
Then `Nc1nc2c(c(N3CC[C@H](N)C3)n1)CCCCCc1ccccc1-2` [Example 25, 4-((S)-3-Amino-pyrrolidin-1-yl)-6,7,8,9-tetrahydro-5H-1,3-diaza-dibenzo[a,c]cyclononen-2-ylamine], with 646 nM; and `CNC1CN(c2nc(N)nc3c2CCCCCc2ccccc2-3)C1` [Example 26, 4-(3-Methylamino-azetidin-1-yl)-6,7,8,9-tetrahydro-5H-1,3-diaza-dibenzo[a,c]cyclononen-2-ylamine], with 115 nM; and `Nc1nc2c(c(N3CC[C@H]4CNC[C@H]43)n1)CCCCCc1ccccc1-2` [Example 27, 4-((3aS,6aS)-Hexahydro-pyrrolo[3,4-b]pyrrol-1-yl)-6,7,8,9-tetrahydro-5H-1,3-diaza-dibenzo[a,c]cyclononen-2-ylamine], with 16596 nM.
The molecule `Nc1nc2c(c(N3C[C@@H]4C[C@H]3CN4)n1)CCCCCc1ccccc1-2` [Example 28, 4-((1S,4S)-2,5-Diaza-bicyclo[2.2.1]hept-2-yl)-6,7,8,9-tetrahydro-5H-1,3-diaza-dibenzo[a,c]cyclononen-2-ylamine] showed a Potency of 15849 nM.
Then `CN1CCN(c2nc(N)nc3c2CCOc2ccccc2-3)CC1` [Example 29, 4-(4-Methyl-piperazin-1-yl)-5,6-dihydro-7-oxa-1,3-diaza-dibenzo[a,c]cyclohepten-2-ylamine], with 39 nM; and `Nc1nc2c(c(N3CCNCC3)n1)CCOc1ccccc1-2` [Example 30, 4-Piperazin-1-yl-5,6-dihydro-7-oxa-1,3-diaza-dibenzo[a,c]cyclohepten-2-ylamine], with 166 nM; and `CN[C@@H]1CCN(c2nc(N)nc3c2CCOc2ccccc2-3)C1` [Example 31, 4-((R)-3-Methylamino-pyrrolidin-1-yl)-5,6-dihydro-7-oxa-1,3-diaza-dibenzo[a,c]cyclohepten-2-ylamine], with 27 nM.
Turning to `CNC1CN(c2nc(N)nc3c2CCOc2ccccc2-3)C1` [Example 32, 4-(3-Methylamino-azetidin-1-yl)-5,6-dihydro-7-oxa-1,3-diaza-dibenzo[a,c]cyclohepten-2-ylamine], the Potency worked out at 8.7 nM.
Then `CNC1CN(c2nc(N)nc3c2CCSc2ccccc2-3)C1` [Example 33, 4-(3-Methylamino-azetidin-1-yl)-5,6-dihydro-7-thia-1,3-diaza-dibenzo[a,c]cyclohepten-2-ylamine], with 13 nM; and `CN[C@@H]1CCN(c2nc(N)nc3c2CCSc2ccccc2-3)C1` [Example 34, 4-(3-(R)-Methylamino-pyrrolidin-1-yl)-5,6-dihydro-7-thia-1,3-diaza-dibenzo[a,c]cyclohepten-2-ylamine], with 4.2 nM; and `Nc1nc2c(c(N3CC[C@@H](N)C3)n1)CCSc1ccccc1-2` [Example 35, 4-(3-(R)-Amino-pyrrolidin-1-yl)-5,6-dihydro-7-thia-1,3-diaza-dibenzo[a,c]cyclohepten-2-ylamine], with 891 nM.
`Nc1nc2c(c(N3CCNCC3)n1)CCSc1ccccc1-2` [Example 36, 4-Piperazin-1-yl-5,6-dihydro-7-thia-1,3-diaza-dibenzo[a,c]cyclohepten-2-ylamine]: the Potency stood at 39 nM.
The molecule `CNC1CN(c2nc(N)nc3c2CC[S+]([O-])c2ccccc2-3)C1` (stereo not drawn) [Example 37, 4-(3-Methylamino-azetidin-1-yl)-7-oxo-6,7-dihydro-5H-7λ4-thia-1,3-diaza-dibenzo[a,c]cyclohepten-2-ylamine] registered a Potency of 537 nM.
Then `CNC1CN(c2nc(N)nc3c2CCS(=O)(=O)c2ccccc2-3)C1` [Example 38, 4-(3-Methylamino-azetidin-1-yl)-7,7-dioxo-6,7-dihydro-5H-7λ6-thia-1,3-diaza-dibenzo[a,c]cyclohepten-2-ylamine], with 5754 nM; and `CN[C@@H]1CCN(c2nc(N)nc3c2CCc2ccccc2-3)C1` [Example 39, 4-(3-(R)-Methylamino-pyrrolidin-1-yl)-5,6-dihydro-benzo[h]quinazolin-2-ylamine], with 22 nM.

For the origin of these results see patent US8735411B2, “Macrocyclic benzofused pyrimidine derivatives” (AbbVie Inc., priority 2006, dated 2014).
